Results on two compounds are retold here after patent US20260158050A1, “USE OF EIDD-1931 OR DERIVATIVE THEREOF IN TREATMENT OF ENTEROVIRUS INFECTION” (ACADEMY OF MILITARY MEDICAL SCIENCES, priority 2022, published 2026).

One series has as its system various enteroviruses. In words: broad-spectrum anti-enteroviral activity (CPE), summary over viruses. The class given is cell-based. The conditions noted are these: all viruses of Table 1; read-out: EC50 values against various enteroviruses. Here is the method:
In this experiment, the experiment on protection of EIDD-1931 and EIDD-2801 against CPE caused by EV-A71 virus AH08/06 strain, EV-D68 virus STL-2014-12 strain, CV-A6 TW-2007-00141 strain, and CV-A16 190-D1 strain were all performed by using RD cells. The experiments on protection of EIDD-1931 and EIDD-2801 against CPE caused by CV-B3 Nancy strain were performed by using Vero cells. The specific experimental methods were the same as those in Example 1.

For another series, the system named is EV-D68 STL-2014-12. In words: CPE protection, EV-D68 STL-2014-12 strain. The class given is cell-based. As to conditions: for EC50: EV-D68 STL-2014-12, RD cells.
The next series relates to EV-A71 AH08/06. In words: CPE protection, EV-A71 AH08/06 strain. The class given is cell-based. The conditions noted are these: EV-A71 AH08/06, RD cells.
The next series concerns EV-A71 VP1 protein. The series is described as follows: inhibition of EV-A71 VP1 protein synthesis (immunofluorescence, Western blot). The class given is cell-based. The conditions noted are these: Vero cells IF, RD cells Western blot (FIG. 4). On the procedure:
Vero cells were seeded in a 96-well black plate at a density of about 1.0×10^4 per well and cultured at 37° C. and 5% CO2 for 24 hours. Then, EV-A71 virus was diluted to the corresponding concentration with cell maintenance medium and added into the 96-well plate (MOI=1). At the same time, the test compounds EIDD-1931 and EIDD-2801, which had been diluted in advance with cell maintenance medium, were added at the final concentrations of 10 μM, 3 μM and 100 μM, 30 μM, respectively. Then the cells were cultured for 16 hours, the liquid was discarded, 100 μL of 4% formaldehyde was added to each well for fixation for 30 minutes, the fixative was discarded, PBS buffer was added, and the antibody was incubated and labeled for imaging.
RD cells were seeded in a 12-well plate at a density of about 1.0×10^5 per well and cultured at 37° C. and 5% CO2 for 24 hours. Then, EV-A71 virus was diluted to the corresponding concentration with cell maintenance medium and added to the 12-well plate so that the virus content in each well was 0.1 MOI. […] After the protein concentration was determined with BCA protein quantification kit, the corresponding volume of 5×SDS Loading Buffer was added and boiled at 100° C. for 10 minutes to fully denature the protein. […]
On the technique in general: A western blot detects proteins with antibodies after separation by electrophoresis.

In series [1] the test system is CHIKV, VEEV, RSV, HCV, NV, IAV, IBV, EBOV, MERS-CoV, SARS-CoV-2. As to conditions: background art; cited from earlier work.
For another series, the system named is RD cells. In words: cytotoxicity test on RD cells. The class given is cell-based, Human. The conditions noted are these: 3 days. On the procedure: Human liver tumor cells (Huh7 cells) used in the experiment were purchased from Chinese National Infrastructure of Cell Line Resource. Human […] cells (RD cells) and African green monkey kidney cells (Vero cells) were purchased from ATCC (Cat. No.: CCL-136 and CCL-81, respectively). The above cells were cultured in a cell culture incubator at 37° C. and 5% CO2. The complete culture medium used for cell growth was DMEM high-glucose culture medium (purchased from Gibco, Cat. […] No.: 16000044) and penicillin-streptomycin (purchased from Gibco, Cat. No.: 2321152). The maintenance culture medium used for cell culture was DMEM high-glucose culture medium supplemented with 2% FBS and penicillin-streptomycin. H strain of EV-A71 was purchased from ATCC (Cat. No.: VR-1432). […] The microplate reader, model Spectra Max M5, was purchased from Molecular Devices. […] Finally, the luminescence value of each well was measured using the microplate reader. The inhibition rate of the test compounds at each dilution was calculated as follows: [formula] […] The half-cytotoxic concentrations (CC50) of the test compounds were calculated using the same method, and the select index (SI) was calculated based on EC50 and CC50: SI=CC50/EC50.

The subject of the next series is MERS-CoV or SARS-CoV. The conditions noted are these: mice, cited from earlier work.

Regarding `O=c1nc(NO)ccn1[C@@H]1O[C@H](CO)[C@@H](O)[C@H]1O` [EIDD-1931], the values for the EC50 with various enteroviruses, with EV-D68 STL-2014-12 and in the series on EV-A71 AH08/06 were under 20 µM, 9.69 ± 0.04 µM and 2.79 ± 0.89 µM, respectively. The “inhibition of production of EV-A71 VP1 protein” value in the series on EV-A71 VP1 protein was “dose-dependently inhibit”. Also, the “inhibitory effects against CHIKV, VEEV, RSV, HCV, NV, IAV, IBV, EBOV, MERS-CoV and SARS-CoV-2” value in series [1] is recorded as “good inhibitory effects”. In the series with RD cells, the CC50 – broadly, the concentration giving 50% cytotoxicity – was 80.47 ± 0.02 µM.

Consider `CC(C)C(=O)OC[C@H]1O[C@@H](n2cc/c(=N\O)[nH]c2=O)[C@H](O)[C@@H]1O` [EIDD-2801], for which, in the series with EV-D68 STL-2014-12, the “inhibitory activity against EV-V68” value is recorded as “low inhibitory activity” and the EC50 (usually the concentration needed to bring the measured effect to its halfway point) was 86.2 ± 9.17 µM. In the series on EV-A71 AH08/06, the EC50 amounted to 30.3 ± 0.55 µM. For the same compound, the “inhibition of production of EV-A71 VP1 protein” value in the series on EV-A71 VP1 protein is listed as “dose-dependently inhibit”. The “lung damage caused by MERS-CoV or SARS-CoV infections” value in the series on MERS-CoV or SARS-CoV (preventive use) is on record as “prevent lung damage”. Also, the “degree of lung damage and weight loss” value in the series with MERS-CoV or SARS-CoV (therapeutic use within 12 hours or 24 hours after infection) is “significantly reduce”. Besides, in the series with RD cells, the CC50 is over 100 µM.
